Laboratory results reported in US11944623B2, “Modulators of Kv3 channels to treat pain” (Autifony Therapeutics Limited, priority 2015, dated 2024).

Target: T1, human Kv3.1 channels (Homo sapiens, UniProt P48547)
T1 construct: expressed in transfected cells; host or cells: CHO/Gam/E1A-clone22 (CGE22) cells, transient BacMam transduction
T1 sequence (P48547 1-511): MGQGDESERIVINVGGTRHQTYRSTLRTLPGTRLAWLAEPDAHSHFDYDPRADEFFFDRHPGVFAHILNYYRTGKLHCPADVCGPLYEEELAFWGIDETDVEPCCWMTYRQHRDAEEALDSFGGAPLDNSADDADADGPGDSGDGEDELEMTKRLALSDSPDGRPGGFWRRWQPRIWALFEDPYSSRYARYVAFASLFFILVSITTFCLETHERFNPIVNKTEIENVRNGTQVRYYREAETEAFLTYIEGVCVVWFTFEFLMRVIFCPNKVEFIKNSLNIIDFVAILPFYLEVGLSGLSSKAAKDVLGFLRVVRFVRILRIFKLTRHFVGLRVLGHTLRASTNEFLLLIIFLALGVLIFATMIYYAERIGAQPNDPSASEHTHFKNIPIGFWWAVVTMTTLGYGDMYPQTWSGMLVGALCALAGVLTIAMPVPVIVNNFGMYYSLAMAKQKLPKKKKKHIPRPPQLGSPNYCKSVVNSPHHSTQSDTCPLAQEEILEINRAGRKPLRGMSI
Test: hKv3.1 IonWorks Quattro whole-cell current potentiation assay
Format: cell-based
Settings: potency as indicated by an EC50 value
Description: The ability of the compounds of the invention to modulate the voltage-gated potassium channel subtypes Kv3.3/Kv3.2/Kv3.1 may be determined using the following assay. Analogous methods may be used to investigate the ability of the compounds of the invention to modulate other channel subtypes.
To assess compound effects on human Kv3.1 channels (hKv3.1), CHO/Gam/E1A-clone22 alias CGE22 cells were transduced using a hKv3.1 BacMam reagent. This cell line was designed to be an improved CHO-K1-based host for enhanced recombinant protein expression as compared to wild type CHO-K1. The cell line was generated following the transduction of CHO-K1 cells with a BacMam virus expressing the Adenovirus-Gam1 protein and selection with Geneticin-G418, to generate a stable cell line, CHO/Gam-A3. CHO/Gam-A3 cells were transfected with pCDNA3-E1A-Hygro, followed by hygromycin-B selection and FACS sorting to obtain single-cell clones. […]
Experiments were conducted at room temperature using IonWorks Quattro™ planar array electrophysiology technology (Molecular Devices Corp.) with PatchPlate™ PPC. […] Planar electrode hole resistances (Rp) were determined by applying a 10 mV voltage step across each well. […]
Test pulses protocol may be performed in the absence (pre-read) and presence (post-read) of the test compound. […]

activity between modulation of Kv3.1 and Kv3.2 channels: comparable activity
SMILES: Cc1ccc(Oc2ccc(-n3c(C)n[nH]c3=O)cn2)c2c1OCC21CC1 [Compound 3, 5-methyl-4-{6-[(7-methylspiro[1-benzofuran-3,1′-cyclopropan]-4-yl)oxy]pyridin-3-yl}-2,4-dihydro-3H-1,2,4-triazol-3-one]
